Results: patent US11918550B2, “Sensitization of cancer cells to differentiation therapy with mitochondrial uncoupler niclosamide ethanolamine” (The Board of Trustees of the Leland Stanford Junior …, priority 2020, dated 2024)

Assays:
SK-N-BE(2) cells [1] = test: RNA-seq gene expression profiling with GSEA/DAVID analysis and qPCR validation; format: cell-based
Description: RNA isolation, reverse transcription, and real-time PCR. The procedure was performed as described before. Briefly, total RNA was isolated from 60 mm tissue culture plates according to the TRIzol Reagent (Invitrogen, 15596026) protocol. 3 μg of total RNA was used in the reverse transcription reaction using the iScript cDNA synthesis kit (Bio-Rad). Quantitative PCR amplification was performed on the Prism 7900 Sequence Detection System (Applied Biosystems) using Taqman Gene Expression Assays (Applied Biosystems). Gene expression level were normalized to 18S rRNA.
RNA Sequencing and bioinformatics analysis. […] The RNA-seq library was constructed and subjected to 150 bp paired-end sequencing on an Illumina sequencing platform (Novogene). RNA-seq analysis was performed using the kallisto and sleuth analytical pipeline. In brief, a transcript index was generated with reference to Ensembl version 67 for hg19. Paired-end mRNA-seq reads were pseudo-aligned using kallisto (v0.42.4) with respect to this transcript index using 100 bootstraps (-b 100) to estimate the variance of estimated transcript abundances. Transcript-level estimates were aggregated to transcripts per million (TPM) estimates for each gene, with gene names assigned from Ensembl using biomaRt. Differential gene expression analysis was performed using the sleuth R package across pairwise groups using Wald tests, with significant hits called with a sleuth q-value<0.05 and log 2(fold change) >0.693 or <−0.693. […] All the annotated transcripts (˜21,427 features in total) with expression values were uploaded to a locally-installed GSEA tool (version 4.1.0) and compared against the H: hallmark gene sets (50 gene sets).
To generate the favorable or unfavorable prognosis gene sets, Kaplan-Meier assay were employed for all the genes independently by using all 11 available neuroblastoma patient databases from R2.
For functional annotation, differentially expressed genes were submitted to online Database for Annotation, Visualization and Integrated Discovery (DAVID) website. The Analyses in DAVID were performed using the default parameters.

[2] = tested on: orthotopic neuroblastoma xenograft (SK-N-BE(2) cells); test: H&E histology and immunohistochemistry of orthotopic tumors; format: in vivo, mice; conditions: diet 2000 ppm NEN vs control
SK-N-BE(2) cells [3] = test: Proliferation after hypoxia pretreatment and replating; format: cell-based; conditions: 1 μM NEN under hypoxia 4 days, replated under normoxia, counted after 5 days
Description: Cell proliferation and clonogenic assay. 2×10^4 cells were seeded in 12 well-plate and allowed to attached overnight. Then the cells were treated with various conditions as indicated for 48 h or 96 h (n=3). After treatment, cells were counted using hemocytometer.

N-Myc = N-Myc mRNA and protein levels (qPCR, western blot); format: cell-based; conditions: SK-N-BE(2) cells, 1 μM NEN
Description: Protein extraction and immunoblot. Cells were washed with ice-cold PBS buffer (Invitrogen, 20012050) and lysed with harvest buffer (10 mM Hepes pH 7.9, 50 mM NaCl, 500 mM sucrose, 0.1 mM EDTA and 0.5% Trition X-100) supplemented with 1% Halt inhibitors (Thermo Scientific™, 78443) for 10 minutes. Cell lysate was centrifuged at 3000 rpm for 3 min at 4° C. The supernatant containing cytosolic proteins was transferred to a different tube. The pellet containing nuclear proteins was dissolved with nuclear lysis buffer (10 mM Hepes pH 7.9, 0.5M NaCl, 0.1 mM EDTA, 0.1 mM EGTA and 0.1% NP40) supplemented with 1% Halt inhibitors (Thermo Scientific™, 78443) for 5 minutes at 4° C. Then the solution was sonicated at 4° C. for 6 cycles (1 cycle=30 s sonication and 30 s cooldown with “High” energy intensity) using a Bioruptor® Plus sonication (Diagenode, UCD-300). After sonication, the solution was centrifuged at 15,000 rpm for 10 minutes. The supernatant was kept as nuclear extraction. Protein concentration was determined by BCA assay (Thermo Scientific, 23227). […] Signals were detected with an ECL kit (Thermo Scientific™, 34577) by using BioRad Universal Hood II. […] Quantitative PCR amplification was performed on the Prism 7900 Sequence Detection System (Applied Biosystems) using Taqman Gene Expression Assays (Applied Biosystems). […]

[4] = GSEA against gene sets from 11 neuroblastoma datasets of the R2 database
[5] = SK-N-BE(2), NEN 16 h, DAVID analysis
[6] = SK-N-BE(2), NEN 16 h, sleuth q-value<0.05, b>abs(ln(2))
[7] = SK-N-BE(2), RNA-seq, validated by RT-qPCR

For `O=C(Nc1ccc([N+](=O)[O-])cc1Cl)c1cc(Cl)ccc1O` [NEN, 5-chloro-N-(2-chloro-4-nitrophenyl)-2-hydroxybenzamide compound with 2-aminoethanol (1:1)], the “enrichment of NEN-downregulated genes in patient prognosis gene sets” value (SK-N-BE(2) cells [1]; [4]) was “enriched in unfavorable prognosis gene sets”, the “enrichment of NEN-upregulated genes in patient prognosis gene sets” value (SK-N-BE(2) cells [1]; [4]) was “enriched in all the favorable prognosis gene sets except one” and the “genes expression in RAR signaling induced by RA” value (SK-N-BE(2) cells [1]; SK-N-BE(2), 1 μM NEN + 1 μM 13-cis-RA 16 hrs, validated by qRT-PCR) was “significantly enhanced”. For the same molecule, the “p53 pathway gene expression (GSEA)” value (SK-N-BE(2) cells [1]; SK-N-BE(2), NEN 16 h) was “significantly increased”, the “pathways enriched in NEN-downregulated genes” value (SK-N-BE(2) cells [1]; [5]) was “DNA replication and cell cycle progression” and the “pathways enriched in upregulated genes” value (SK-N-BE(2) cells [1]; [5]) was “neurogenesis, nervous system development and neuron differentiation”. The “number of genes downregulated” value (SK-N-BE(2) cells [1]; [6]) was 224, the “number of genes significantly upregulated” value (SK-N-BE(2) cells [1]; [6]) was 495 and the “cell division-related genes (GSEA hallmarks E2F-TARGETS, G2M_CHECKPOINT)” value (SK-N-BE(2) cells [1]; SK-N-BE(2), NEN 16 h vs CTRL) was “downregulation”. The “expression of N-Myc targeted genes (GSEA MYC_TARGETS_V1, V2)” value (SK-N-BE(2) cells [1]; SK-N-BE(2), NEN 16 h vs CTRL) was “reduced”, the “expression of canonical Wnt/β-catenin target genes” value (SK-N-BE(2) cells [1]; [7]) was “reduced” and the “gene expression of inhibitor of Wnt/β-catenin pathway including TP53” value (SK-N-BE(2) cells [1]; [7]) was “upregulated”. The “N-Myc protein expression in xenografts (IHC)” value [2] was “significantly reduced”, the “enlarged prominent nucleoli in tumor cells (H&E)” value [2] was “much fewer” and the “β-catenin protein expression in xenografts (IHC)” value [2] was “significantly reduced”. The “gain of proliferation advantage from hypoxia pretreatment” value (SK-N-BE(2) cells [3]) was “blocked”, the “mRNA level of N-Myc” value (N-Myc) was “significantly reduced” and the “protein level of N-Myc” value (N-Myc) was “significantly reduced”.
